The source of these data is patent US9796733B2, “Imidazo-pyrazine derivatives useful as soluble guanylate cyclase activators” (Merck Sharp & Dohme Corp., priority 2014, dated 2017).

In general, EC50 refers to the concentration that produces a half-maximal response. Read a low EC50 as greater potency.

The target in the test is T1, sGC α1/β1 heterodimer (Homo sapiens, UniProt Q02108+Q02153).
T1 construct: expressed in transfected cells; host or cells: CHO-K1 (clone #7, CHO-K1/sGC)
T1 sequence (Q02108 1-690): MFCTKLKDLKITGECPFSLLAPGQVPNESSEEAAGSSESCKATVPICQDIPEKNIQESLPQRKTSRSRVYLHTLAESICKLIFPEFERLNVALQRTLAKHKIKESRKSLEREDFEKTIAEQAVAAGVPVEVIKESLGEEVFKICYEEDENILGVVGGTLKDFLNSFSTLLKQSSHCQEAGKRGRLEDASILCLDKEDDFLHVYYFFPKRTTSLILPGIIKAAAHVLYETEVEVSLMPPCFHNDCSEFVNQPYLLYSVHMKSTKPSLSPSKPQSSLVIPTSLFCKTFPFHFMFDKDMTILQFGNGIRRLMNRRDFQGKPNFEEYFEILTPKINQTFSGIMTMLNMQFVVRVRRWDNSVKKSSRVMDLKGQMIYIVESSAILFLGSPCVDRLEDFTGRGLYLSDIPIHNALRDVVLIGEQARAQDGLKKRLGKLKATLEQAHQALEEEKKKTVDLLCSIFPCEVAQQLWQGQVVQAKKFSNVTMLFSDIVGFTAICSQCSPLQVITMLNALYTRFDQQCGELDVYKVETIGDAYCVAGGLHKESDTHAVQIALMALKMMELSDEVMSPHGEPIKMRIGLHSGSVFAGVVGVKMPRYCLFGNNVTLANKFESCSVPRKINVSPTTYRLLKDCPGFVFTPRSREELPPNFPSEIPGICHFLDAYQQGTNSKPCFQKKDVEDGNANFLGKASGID
T1 sequence (Q02153 1-619): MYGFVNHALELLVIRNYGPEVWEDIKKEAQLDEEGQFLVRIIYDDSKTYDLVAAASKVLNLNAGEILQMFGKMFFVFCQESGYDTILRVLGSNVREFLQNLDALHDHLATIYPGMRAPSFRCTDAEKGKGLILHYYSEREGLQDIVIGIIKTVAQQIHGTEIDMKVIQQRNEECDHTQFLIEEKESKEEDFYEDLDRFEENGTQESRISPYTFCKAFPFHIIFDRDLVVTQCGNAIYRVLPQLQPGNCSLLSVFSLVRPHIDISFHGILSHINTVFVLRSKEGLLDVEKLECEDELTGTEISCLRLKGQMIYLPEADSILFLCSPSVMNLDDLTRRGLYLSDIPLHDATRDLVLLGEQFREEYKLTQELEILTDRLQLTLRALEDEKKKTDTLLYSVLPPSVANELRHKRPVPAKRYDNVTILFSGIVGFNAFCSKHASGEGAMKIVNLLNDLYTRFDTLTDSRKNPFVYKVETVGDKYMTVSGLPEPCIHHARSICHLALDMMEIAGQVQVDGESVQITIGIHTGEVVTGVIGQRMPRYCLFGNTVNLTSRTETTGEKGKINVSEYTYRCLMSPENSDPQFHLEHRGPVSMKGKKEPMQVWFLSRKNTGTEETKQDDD
As to the kind of experiment: Cell-based sGC functional assay (CASA assay): cGMP generation in CHO-K1/sGC cells, HTRF detection. As to conditions: for Emax: CHO-K1, percent activation relative to standard Compound A in CHO-K1/sGC cells, read-out: % Act.; for EC50: inflection point (IP) of cGMP generation in CHO-K1/sGC cells, 4P fit, activity expressed as percentage of Compound A. The method in brief:
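cGMP was quantified by HTRF after 1 hr, 37° C exposure of thawed CHO-K1 cells expressing sGC α1/β1 to compound, with or without 1 μM DETA-NO. IBMX (0.5 mM) blocked cGMP breakdown, and DMSO was 2.5% final. Percent of standard Compound A's maximal cGMP was fitted (4P) for inflection point.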
(TR-FRET usually uses a lanthanide donor and a delayed reading to cut background.)

For the molecule `CC1(c2ccccc2)C(=O)Nc2nc(-c3cn4cc(C5CC5)nc4c(CCC(F)(F)C(F)(F)F)n3)nc(N)c21` (centres unmarked) [Example 158B, 4-amino-2-(2-cyclopropyl-8-(3,3,4,4,4-pentafluorobutyl)imidazo [1,2-a]pyrazin-6-yl)-5-methyl-5-phenyl-5H-pyrrolo[2,3-d]pyrimidin-6(7H)-one], the Emax came to 109% and the EC50 stood at 296 nM.

On to `CCc1cn2cc(-c3nc(N)c4c(n3)NC(=O)C4(C)c3ccccc3)nc(CCC(F)(F)C(F)(F)F)c2n1` (centres unmarked) [Example 160B, 4-amino-2-(2-ethyl-8-(3,3,4,4,4-pentafluorobutyl)imidazo [1,2-a]pyrazin-6-yl)-5-methyl-5-phenyl-5H-pyrrolo[2,3-d]pyrimidin-6(7H)-one], for which the Emax is 102% and a half-maximal response (EC50) required 978 nM.

As to `CCc1cnc2c(CCC(F)(F)C(F)(F)F)nc(-c3nc(N)c4c(n3)NC(=O)C4(C)c3ccc(F)cc3)cn12` (centres unmarked) [Example 161A, 4-amino-2-(3-ethyl-8-(3,3,4,4,4-pentafluorobutyl)imidazo [1,2-a]pyrazin-6-yl)-5-(4-fluorophenyl)-5-methyl-5H-pyrrolo[2,3-d]pyrimidin-6(7H)-one], the Emax turned out to be 76% and the EC50 is 354 nM.

For the molecule `Cc1cn2cc(-c3nc(N)c4c(n3)NC(=O)C4(C)c3ccc(F)cn3)nc(Cc3ccc(F)cc3)c2n1` (centres unmarked) [Example 162B, 4-amino-2-(8-(4-fluorobenzyl)-2-methylimidazo[1,2-a]pyrazin-6-yl)-5-(5-fluoropyridin-2-yl)-5-methyl-5H-pyrrolo[2,3-d]pyrimidin-6(7H)-one], the Emax stood at 88% and a half-maximal response (EC50) required 168 nM.

Consider `Cc1cnc2c(Cc3ccc(F)cc3)nc(-c3nc(N)c4c(n3)NC(=O)C4(C)c3ccc(F)cn3)cn12` (centres unmarked) [Example 163B, 4-amino-2-(8-(4-fluorobenzyl)-3-methylimidazo[1,2-a]pyrazin-6-yl)-5-(5-fluoropyridin-2-yl)-5-methyl-5H-pyrrolo[2,3-d]pyrimidin-6(7H)-one], for which the Emax turned out to be 84% and the midpoint of the response, the EC50, lay at 230 nM.

For the molecule `CCCCc1nc(-c2nc(N)c3c(n2)NC(=O)C3(C)c2ccc(F)cn2)cn2cc(C)nc12` (centres unmarked) [Example 164B, 4-amino-2-(8-butyl-2-methylimidazo[1,2-a]pyrazin-6-yl)-5-(5-fluoropyridin-2-yl)-5-methyl-5H-pyrrolo[2,3-d]pyrimidin-6(7H)-one], the Emax was 93% and the midpoint of the response, the EC50, lay at 81 nM.

Regarding `CCCCc1nc(-c2nc(N)c3c(n2)NC(=O)C3(C)c2ccc(F)cn2)cn2c(C)cnc12` (centres unmarked) [Example 165B, 4-amino-2-(8-butyl-3-methylimidazo[1,2-a]pyrazin-6-yl)-5-(5-fluoropyridin-2-yl)-5-methyl-5H-pyrrolo[2,3-d]pyrimidin-6(7H)-one], the Emax is 81% and the response was half-maximal at 43 nM (EC50).

With `CCCCc1nc(-c2nc(N)c3c(n2)NC(=O)C3(C)c2ccc(C(F)(F)F)cn2)cn2c(C)cnc12` (centres unmarked) [Example 167B, 4-amino-2-(8-butyl-3-methylimidazo[1,2-a]pyrazin-6-yl)-5-methyl-5-(5-(trifluoromethyl)pyridin-2-yl)-5H-pyrrolo[2,3-d]pyrimidin-6(7H)-one], the Emax was found to be 99% and the concentration giving a half-maximal response (EC50) is 41 nM.

With `CCCCc1nc(-c2nc(N)c3c(n2)NC(=O)C3(C)c2ccc(Cl)cn2)cn2c(C)cnc12` (centres unmarked) [Example 169A, 4-amino-2-(8-butyl-3-methylimidazo[1,2-a]pyrazin-6-yl)-5-(5-chloropyridin-2-yl)-5-methyl-5H-pyrrolo[2,3-d]pyrimidin-6(7H)-one], the Emax was 75% and the EC50 was 19 nM.

With `Cc1nc2c(CCC(F)(F)C(F)(F)F)nc(-c3nc(N)c4c(n3)NC(=O)C4(C)c3ccc(F)cc3)cn2c1C` (centres unmarked) [Example 177A, 4-amino-2-(2,3-dimethyl-8-(3,3,4,4,4-pentafluorobutyl)imidazo [1,2-a]pyrazin-6-yl)-5-(4-fluorophenyl)-5-methyl-5H-pyrrolo[2,3-d]pyrimidin-6(7H)-one], the Emax was 107% and the concentration for a half-maximal effect (EC50) is 129 nM.

On to `CC1(c2ccc(F)cc2F)C(=O)Nc2nc(-c3cn4ccnc4c(CCC(F)(F)F)n3)nc(N)c21` (centres unmarked) [Example 180A, 4-amino-5-(2,4-difluorophenyl)-5-methyl-2-(8-(3,3,3-trifluoropropyl)imidazo[1,2-a]pyrazin-6-yl)-5H-pyrrolo[2,3-d]pyrimidin-6(7H)-one], for which the Emax was found to be 115% and the 50% effective concentration (EC50) was found to be 39 nM.

Turning to `CC1(c2ccc(Cl)cc2Cl)C(=O)Nc2nc(-c3cn4ccnc4c(CCC(F)(F)F)n3)nc(N)c21` (centres unmarked) [Example 187A, 4-amino-5-(2,4-dichlorophenyl)-5-methyl-2-(8-(3,3,3-trifluoropropyl)imidazo[1,2-a]pyrazin-6-yl)-5H-pyrrolo[2,3-d]pyrimidin-6(7H)-one], the Emax is 126% and the EC50 was 1070 nM.

Regarding `CC1(c2cccc(F)c2)C(=O)Nc2nc(-c3cn4ccnc4c(CCC(F)(F)F)n3)nc(N)c21` (centres unmarked) [Example 191A, 4-amino-5-(3-fluorophenyl)-5-methyl-2-(8-(3,3,3-trifluoropropyl)imidazo[1,2-a]pyrazin-6-yl)-5H-pyrrolo[2,3-d]pyrimidin-6(7H)-one], the Emax was 90% and the EC50 is 130 nM.

Consider `COc1ccc(C2(C)C(=O)Nc3nc(-c4cn5ccnc5c(CCC(F)(F)F)n4)nc(N)c32)cc1` (centres unmarked) [Example 192B, 4-amino-5-(4-methoxyphenyl)-5-methyl-2-(8-(3,3,3-trifluoropropyl)imidazo[1,2-a]pyrazin-6-yl)-5H-pyrrolo[2,3-d]pyrimidin-6(7H)-one], for which the Emax came out at 168% and it took 923 nM to reach a half-maximal effect (EC50).

Turning to `CC1(c2cc(F)cc(F)c2)C(=O)Nc2nc(-c3cn4ccnc4c(CCC(F)(F)F)n3)nc(N)c21` (centres unmarked) [Example 195B, 4-amino-5-(3,5-difluorophenyl)-5-methyl-2-(8-(3,3,3-trifluoropropyl)imidazo[1,2-a]pyrazin-6-yl)-5H-pyrrolo[2,3-d]pyrimidin-6(7H)-one], the Emax is 114% and the 50% effective concentration (EC50) came out at 312 nM.

Take `CC1(c2ccc(OC(F)(F)F)cc2)C(=O)Nc2nc(-c3cn4ccnc4c(CCC(F)(F)F)n3)nc(N)c21` (centres unmarked) [Example 196B, 4-amino-5-methyl-5-(4-(trifluoromethoxy)phenyl)-2-(8-(3,3,3-trifluoropropyl)imidazo[1,2-a]pyrazin-6-yl)-5H-pyrrolo[2,3-d]pyrimidin-6(7H)-one]: the Emax was found to be 106% and it took 267 nM to reach a half-maximal effect (EC50).

Regarding `Nc1nc(-c2cn3ccnc3c(CCC(F)(F)F)n2)nc2c1C(c1ccc(Br)cc1)(C1CC1)C(=O)N2` (centres unmarked) [Example 200A, 4-amino-5-(4-bromophenyl)-5-cyclopropyl-2-(8-(3,3,3-trifluoropropyl)imidazo[1,2-a]pyrazin-6-yl)-5H-pyrrolo[2,3-d]pyrimidin-6(7H)-one], the Emax was 96% and the EC50 stood at 457 nM.

On to `CC(C)C1(c2ccc(Cl)cc2)C(=O)Nc2nc(-c3cn4ccnc4c(CCC(F)(F)F)n3)nc(N)c21` (centres unmarked) [Example 203B, 4-amino-5-(4-chlorophenyl)-5-isopropyl-2-(8-(3,3,3-trifluoropropyl)imidazo[1,2-a]pyrazin-6-yl)-5H-pyrrolo[2,3-d]pyrimidin-6(7H)-one], for which the Emax was 115% and the response was half-maximal at 1170 nM (EC50).

Consider `CC1(c2ccc(Cl)c(F)c2)C(=O)Nc2nc(-c3cn4ccnc4c(CCCC(F)(F)F)n3)nc(N)c21` (centres unmarked) [Example 204B, 4-amino-5-(4-chloro-3-fluorophenyl)-5-methyl-2-(8-(4,4,4-trifluorobutyl)imidazo[1,2-a]pyrazin-6-yl)-5H-pyrrolo[2,3-d]pyrimidin-6(7H)-one], for which the Emax is 110% and the EC50 came out at 14 nM.
